Usually MIC stands for the lowest concentration found to suppress growth. Read a low MIC as inhibition by little substance. What is called IC50 is the midpoint of a concentration-inhibition curve. One may read the Tmax as the time from dosing to the highest level. As usually defined, the Cmax is the maximum level reached in the sampled fluid or tissue. The term AUC(0-t) denotes exposure summed from dosing to a finite time, without extrapolation to infinity. Lower therefore signals low exposure. As usually defined, the MRT is a mean duration of stay, worked out from the concentration-time curve. The term bioavailability denotes dose-corrected exposure relative to a reference, in per cent. As usually defined, the clearance is the volume of plasma or blood freed of the substance per unit of time. Read a low clearance as a low capacity for elimination. The solubility is how much of the substance goes into solution per volume. For orientation: AUC means concentration integrated over time.

≈ marks a conversion by molar mass, not a printed value. Calls of active or inactive are those of the source. The rule behind the calls is not given here.

Four compounds from ChEMBL document CHEMBL5528009, “Benzothiozinone derivatives with anti-tubercular Activity-Further side chain investigation” (Eur J Med Chem, 2024) can be followed below.

The test system of series [1] is Mycobacterium tuberculosis. Briefly: Antitubercular activity against Mycobacterium tuberculosis H37Rv (ATCC 25618) incubated for […] by MABA assay. It counts as functional. In general terms: The colour change of resazurin is a common sign of viable cells or microbes.
Series [2] addresses T1, Decaprenylphosphoryl-beta-D-ribose oxidase (Mycobacterium tuberculosis (strain ATCC 25618 / H37Rv), UniProt P9WJF1).
T1 sequence (P9WJF1 whole entry): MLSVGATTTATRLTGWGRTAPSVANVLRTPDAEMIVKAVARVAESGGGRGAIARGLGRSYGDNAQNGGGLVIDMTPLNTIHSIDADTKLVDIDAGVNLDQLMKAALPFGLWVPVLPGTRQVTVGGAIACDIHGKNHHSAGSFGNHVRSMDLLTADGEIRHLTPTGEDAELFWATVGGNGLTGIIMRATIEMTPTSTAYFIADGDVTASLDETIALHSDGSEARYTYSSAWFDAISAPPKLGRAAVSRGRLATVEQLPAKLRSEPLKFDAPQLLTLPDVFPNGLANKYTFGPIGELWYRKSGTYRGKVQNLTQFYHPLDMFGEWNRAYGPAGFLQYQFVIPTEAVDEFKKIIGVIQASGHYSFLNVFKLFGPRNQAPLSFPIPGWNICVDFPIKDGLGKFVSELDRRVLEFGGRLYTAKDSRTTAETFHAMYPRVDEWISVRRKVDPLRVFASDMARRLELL
The experiment in a line: Inhibition of recombinant Mycobacterium tuberculosis DprE1 expressed in Escherichia coli measured after 120 mins by Amplex Red/peroxidase coupled assay.

The target of series [3] is T2, Decaprenylphosphoryl-beta-D-ribose oxidase (Mycobacterium tuberculosis (strain ATCC 25618 / H37Rv)) (UniProt P9WJF1).
T2 sequence (whole entry): T1 sequence (P9WJF1 whole entry)
The experiment in a line: Time-dependent covalent inhibition of recombinant Mycobacterium tuberculosis DprE1 expressed in Escherichia coli by Amplex Red/peroxidase coupled assay.

Series [4] can be described thus: Tmax in ICR mouse at 25 micromol/kg, po measured after 24 hrs by LC-MS/MS analysis. Particulars: in vivo, dose 25 µmol/kg. It counts as ADME, organism-based.
Series [5] is described as follows: Cmax in ICR mouse at 25 micromol/kg, po measured after 24 hrs by LC-MS/MS analysis. Particulars: in vivo, dose 25 µmol/kg. It counts as ADME, organism-based.
The nature of series [6]: AUC (0 to 24 hrs) in ICR mouse at 25 micromol/kg, po by LC-MS/MS analysis. It counts as ADME, organism-based. To be noted: in vivo, dose 25 µmol/kg; for AUC: po.
Series [7] is described as follows: Elimination half life in ICR mouse at 25 micromol/kg, po measured after 24 hrs by LC-MS/MS analysis. Particulars: in vivo, dose 25 µmol/kg, read-out: beta t1/2 (converted). It counts as ADME, organism-based.
Series [8] is described as follows: MRT in ICR mouse at 25 micromol/kg, po measured after 24 hrs by LC-MS/MS analysis. Particulars: in vivo, dose 25 µmol/kg. It counts as ADME, organism-based.
Series [9] is described as follows: Oral bioavailability in ICR mouse at 25 micromol/kg measured after 24 hrs by LC-MS/MS analysis. It counts as ADME, organism-based. Particulars: in vivo; for F: po, 24 h, at 25 µmol/kg.
Series [10] is described as follows: AUC (0 to 8 hrs) in ICR mouse at 5 micromol/kg, iv by LC-MS/MS analysis. The class given is ADME, organism-based. Particulars: in vivo, dose 5 µmol/kg; for AUC: iv.
Series [11] can be described thus: Drug concentration in ICR mouse plasma at 5 micromol/kg, iv measured after 5 mins by LC-MS/MS analysis. The class given is ADME, organism-based. To be noted: dose 5 µmol/kg.
Series [12] can be described thus: Elimination half life in ICR mouse at 5 micromol/kg, iv measured after 24 hrs by LC-MS/MS analysis. The class given is ADME, organism-based. To be noted: in vivo, dose 5 µmol/kg, read-out: beta t1/2 (converted).
Series [13] can be described thus: MRT in ICR mouse at 5 micromol/kg, iv measured after 24 hrs by LC-MS/MS analysis. To be noted: in vivo, dose 5 µmol/kg. The class given is ADME, organism-based.
Series [14] can be described thus: Volume of distribution at steady state in ICR mouse at 5 micromol/kg, iv measured after 24 hrs by LC-MS/MS analysis. It counts as ADME, organism-based. Particulars: in vivo, dose 5 µmol/kg, read-out: Vdss.
The nature of series [15]: Total plasma clearance in ICR mouse at 5 micromol/kg, iv measured after 24 hrs by LC-MS/MS analysis. It counts as ADME, organism-based. Particulars: dose 5 µmol/kg.
Series [16] in a line: Protein binding in mouse plasma assessed as unbound fraction incubated for 24 hrs by equilibrium dialysis based LC/MS analysis. It counts as ADME, cell-free. For orientation: In equilibrium dialysis only unbound substance equilibrates across the membrane.
Series [17] is described as follows: Aqueous solubility of the compound in PBS buffer at pH 6.82 incubated for 4 hrs by HPLC analysis. The class given is physicochemical.
Another series relates to HepG2. The experiment in a line: Cytotoxicity against human HepG2 cells at 30 uM incubated for 48 hrs by CCK8 assay. The class given is toxicity, cell-based. To be noted: hepg2, 48 h. A general note: Tetrazolium dyes change colour on reduction, which living cells bring about.
Series [18] relates to Mycobacterium tuberculosis. The experiment in a line: Antitubercular activity against Mycobacterium tuberculosis H37Rv infected in BALB/c mouse assessed as log reduction in colony formation in lung at 50 mg/kg, po administered for 6 weeks. The class given is functional.
Series [19] can be described thus: Metabolic stability in NADPH-fortified human liver microsomes assessed as CYP450-mediated stability incubated for 120 mins by LC/MS analysis. It counts as ADME, Microsome. To be noted: 2 h.
Series [20] in a line: Metabolic stability in NADPH-fortified mouse liver microsomes assessed as CYP450-mediated stability incubated for 120 mins by LC/MS analysis. The class given is ADME, Microsome. Particulars: 2 h.
The nature of series [21]: Cytotoxicity against mouse hepatic stellate cells at 30 uM incubated for 48 hrs by CCK8 assay. It counts as toxicity, cell-based. To be noted: hepatic stellate cell.

For the compound `CN(CC#CC1CCCCC1)c1nc(=O)c2cc(C(F)(F)F)cc([N+](=O)[O-])c2s1`, it took 2 nM (≈ 0.851 ng/mL) to inhibit growth in series [1] (MIC). In addition, in series [2], the concentration for half-maximal inhibition (IC50) turned out to be 18 nM. The TDI entry in series [3] was “Active”.

`CN(CC#Cc1ccccc1)c1nc(=O)c2cc(C(F)(F)F)cc([N+](=O)[O-])c2s1` showed an MIC in series [1] of 7 nM (≈ 2.94 ng/mL). The time of peak concentration (Tmax) in [4] was determined as 54 min. The same compound displayed a Cmax in series [5] of 1290 nM. Besides, the AUC(0-t) worked out at 5.16 µM·h in series [6] (ICR) and 23.2 µM·h in [10] (ICR). Also, the half-life in series [7] is 177 min; in series [12], 106 min. Besides, the MRT in series [8] came out at 4.35 h; in series [13] it was 2.72 h. The bioavailability in series [9] (ICR, 25 µmol/kg) was found to be 4.49%. Moreover, the concentration at 5 min in [11] stood at 13.5 µM. Besides, the Vd in series [14] was determined as 0.25 L/kg. Moreover, the clearance in [15] was 1.5 mL/min/kg. In addition, the Fu in series [16] amounted to 0.25%. The IC50 in series [2] is 23 nM. The solubility at 4 h in series [17] was 0.8 µg/mL (≈ 1.91 µM). Also, the results for the Activity result (with HepG2; in [18]; in series [21]) were “Non-Toxic”, less than 1 log10CFU and “Non-Toxic”, respectively. In addition, the TDI result in [3] was “Active”. The Stability entry in series [19] and in series [20] was “Stable” each time.

On to `O=c1nc(N2CCN(CC3CCCCC3)CC2)sc2c([N+](=O)[O-])cc(C(F)(F)F)cc12` [MACOZINONE], for which the MIC in series [1] was less than 0.4 nM. Moreover, in [4], the time to peak (Tmax) turned out to be 22.8 min. The maximum concentration (Cmax) in series [5] stood at 472 nM. In addition, the figures for the area under the curve (AUC) in series [6] and in series [10] were 0.80339 µM·h and 1187.66 nM·h, respectively. In addition, the half-life in [7] is 88.8 min; in series [12], 57 min. The MRT in series [8] came to 2.44 h; in series [13], 1.42 h. In series [9], this compound registered an F of 0.65%. This compound returned a concentration at 5 min in [11] of 1.39 µM. Also, the Vd in series [14] was determined as 5.61 L/kg. The compound further gave a clearance in series [15] of 65.5 mL/min/kg. The Fu in series [16] is 0.46%. Moreover, the solubility at 4 h in series [17] was determined as 0.01 µg/mL (≈ 0.0219 µM).

Compound `CN(CC#Cc1cscn1)c1nc(=O)c2cc(C(F)(F)F)cc([N+](=O)[O-])c2s1` displayed a minimal inhibitory concentration (MIC) in [1] of 28 nM (≈ 11.9 ng/mL). In [4], the Tmax stood at 60 min. For the same compound, in series [5], the highest level (Cmax) was 2670 nM. In addition, the AUC in [6] stood at 18.99661 µM·h; in series [10], 4663.45 nM·h. The half-life in series [7] is 286 min; in [12], 50.4 min. The MRT in series [8] is 7.17 h; in [13], 1.05 h. This compound also had a F in series [9] of 37.13%. This compound also showed a concentration at 5 min in [11] of 10.3 µM. For the same compound, the Vd in series [14] amounted to 0.59 L/kg. The clearance in [15] is 8.5 mL/min/kg. The Fu in series [16] is 0.65%. This compound also gave a solubility at 4 h in series [17] of 12.8 µg/mL (≈ 30 µM). Moreover, the Activity result with HepG2 is “Non-Toxic”; in series [18], approximately 2 log10CFU; in series [21], “Non-Toxic”. In addition, the Stability result in series [19] and in series [20] was “Stable” in each case.
